These results are taken from patent US9290467B2, “Cyclic amides” (Hoffmann-La Roche Inc., priority 2012, dated 2016).

The conditions of series [1]: rcm bond, 16-membered ring, DCM, 50.0 °C.
The conditions of series [2]: from C=CCOc1ccc(C[C@H](NC(=O)c2ccccc2OCC=C)C(=O)NC2(C#N)CC2)cc1; rcm bond; 16-membered ring; Grubbs II (0.3 eq); DCM; 2.88 mM; 50.0 °C.
In series [3] the target is Cathepsin L (Homo sapiens (Human), UniProt P07711). The experiment in a line: Cathepsin enzyme inhibition assay (fluorogenic peptide substrate Z-Val-Val-Arg-AMC). Format: biochemical. The settings on record: enzyme 1 nM, substrate 20 μM, pH 6.5. Here is the method: Enzyme activity is measured by observing the increase in fluorescence intensity caused by cleavage of a peptide substrate containing a fluorophore whose emission is quenched in the intact peptide.
Sequence of Cathepsin L (P07711 114-333): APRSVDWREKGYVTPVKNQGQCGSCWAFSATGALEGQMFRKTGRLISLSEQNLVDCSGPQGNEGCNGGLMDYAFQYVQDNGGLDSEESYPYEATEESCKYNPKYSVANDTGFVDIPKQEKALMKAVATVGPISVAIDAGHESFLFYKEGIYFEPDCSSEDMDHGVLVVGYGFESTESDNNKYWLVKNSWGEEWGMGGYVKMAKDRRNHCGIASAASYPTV
Assay buffer: 100 mM potassium phosphate pH 6.5, EDTA-Na 5 mM, Triton X-100 0.001%, DDT 5 mM.
Enzymes (all at 1 nM): human and mouse Cathepsin S, Cat K, Cat B, Cat L
Substrate (20 μM): Z-Val-Val-Arg-AMC, except for Cat K which uses Z-Leu-Arg-AMC (both from Bachem).
AMC=7-Amino-4-Methyl-Coumarin.
Excitation 360 nm, Emission 465 nm.
Enzyme is added to the substance dilutions in 96-well microtitre plates and the reaction is started with substrate. […] IC50 are calculated by standard methods. The results are expressed in μM in the following table.

Where two headings read alike, the source gives them in different places.

In the case of `COC(=O)[C@@H]1Cc2ccc(c(Cl)c2)OC/C=C/COc2ccccc2C(=O)N1`, the ring closure, isolated yield in series [1] (from C=CCOc1ccc(C[C@H](NC(=O)c2ccccc2OCC=C)C(=O)OC)cc1Cl, Grubbs II (0.3 eq), 2.76 mM) stood at 47%. In series [1] (from C=CCOc1ccc(C[C@H](NC(=O)c2cc(Br)ccc2OCC=C)C(=O)NC2(C#N)CC2)cc1Cl, Grubbs II (0.3 eq), 2.15 mM), `N#CC1(NC(=O)[C@@H]2Cc3ccc(c(Cl)c3)OCC=CCOc3ccc(Br)cc3C(=O)N2)CC1` had a ring closure, isolated yield of 53%. Broadly, the IC50 is the midpoint of a concentration-inhibition curve. Take `N#CC1(NC(=O)[C@@H]2Cc3ccc(cc3)OC/C=C/COc3ccccc3C(=O)N2)CC1` [Example 1, (E)-(S)-5-Oxo-12,17-dioxa-4-aza-tricyclo[16.2.2.0*6,11*]docosa-1(21),6(11),7,9,14,18(22),19-heptaene-3-carboxylic acid (1-cyano-cyclopropyl)-amide]: the ring closure, yield after HPLC in series [2] came out at 20%. In series [3], 88.5 nM corresponded to half-maximal inhibition (IC50). Turning to `COc1ccc2c(c1)CC/C=C/COc1ccc(cc1Cl)C[C@@H](C(=O)NC1(C#N)CC1)NC2=O` [Example 18, (E)-(S)-19-Chloro-9-methoxy-5-oxo-17-oxa-4-aza-tricyclo[16.2.2.0*6,11*]docosa-1(21),6,8,10,14,18(22),19-heptaene-3-carboxylic acid (1-cyano-cyclopropyl)-amide], half-maximal inhibition in series [3] (IC50) required 54.7 nM. For the same molecule, the ring closure, isolated yield in series [1] (Grubbs II) came to 48%.

In turn, `Cc1ccc2c(n1)SC/C=C/COc1ccc(cc1Cl)C[C@@H](C(=O)NC1(C#N)CC1)NC2=O` [Example 19, (E)-(S)-19-Chloro-9-methyl-5-oxo-17-oxa-12-thia-4,10-diaza-tricyclo[16.2.2.0*6,11*]docosa-1(21),6,8,10,14,18(22),19-heptaene-3-carboxylic acid (1-cyano-cyclopropyl)-amide] came in with an IC50 in series [3] of 26 nM. This molecule also showed a ring closure, isolated yield in series [1] (from C=CCOc1ccc(C[C@H](NC(=O)c2ccc(C)nc2SCC=C)C(=O)NC2(C#N)CC2)cc1Cl, Grubbs II (0.3 eq)/Ti(OiPr)4 (0.6 eq), 1.15 mM) of 6%.
